Source: patent US12377104B1, “Methods for treating a fatty liver disease” (Madrigal Pharmaceuticals, Inc., priority 2024, dated 2025)

Test system: adults with biopsy-confirmed NASH
Experiment: MAESTRO-NASH: liver enzymes, imaging and biomarkers (MRI-PDFF, CAP, VCTE, MRE, liver and spleen volume, ELF)
Assay type: in vivo, human
Settings: 80 mg
[1] = wk 48, baseline ALT ≥30 U per liter
[2] = week 52, baseline ELF score ≥9.8
[3] = week 52, baseline PIIINP ≥9 ng/mL
[4] = week 52, baseline TIMP-I ≥240 ng/ml
[5] = week 52, baseline hyaluronic acid ≥50 ng/ml

CC(C)c1cc(Oc2c(Cl)cc(-n3nc(C#N)c(=O)[nH]c3=O)cc2Cl)n[nH]c1=O [Resmetirom, 2-(3,5-dichloro-4-((5-isopropyl-6-oxo-1,6-dihydropyridazin-3-yl)oxy)phenyl)-3,5-dioxo-2,3,4,5-tetrahydro-1,2,4-triazine-6-carbonitrile]
Alanine aminotransferase level, difference from placebo (wk 48): −19.7 percentage points
Aspartate aminotransferase level, difference from placebo (wk 48): −19.3 percentage points
γ-Glutamyltransferase level, difference from placebo (wk 48): −28.3 percentage points
Alanine aminotransferase level, least-squares mean percent change from baseline [1]: −26.6 ± 3.7%
Aspartate aminotransferase level, least-squares mean percent change from baseline [1]: −22.1 ± 3.9%
γ-Glutamyltransferase level, least-squares mean percent change from baseline [1]: −25.0 ± 5.5%
MRI-PDFF, difference from placebo (wk 52): −26.7 percentage points
MRI-PDFF, least-squares mean percent change from baseline (wk 52): −35.4 ± 2.8%
MRE ≥19% increase from BL, no. of patients (F1B, responder analysis): 0
MRE ≥19% reduction from BL, % of patients (F1B, responder analysis): (20.0) %
MRE ≥19% reduction from BL, no. of patients (F1B, responder analysis): 1
VCTE/LSM improving >25%, % of patients (F1B, responder analysis): (50.0) %
VCTE/LSM improving >25%, no. of patients (F1B, responder analysis): 6
VCTE/LSM improving ≥30%, % of patients (F1B, responder analysis): (41.7) %
VCTE/LSM improving ≥30%, no. of patients (F1B, responder analysis): 5
VCTE/LSM worsening ≥25%, % of patients (F1B, responder analysis): (8.3) %
VCTE/LSM worsening ≥25%, no. of patients (F1B, responder analysis): 1
VCTE/LSM worsening ≥30%, % of patients (F1B, responder analysis): (8.3) %
VCTE/LSM worsening ≥30%, no. of patients (F1B, responder analysis): 1
FibroScan VCTE/LSM, LS mean CFB (F1B, week 52): −3.7 kPa
FibroScan VCTE/LSM, LS mean CFB difference from PBO (F1B, week 52): −3.1 kPa
MRE, LS mean % CFB (F1B, week 52): −5.7%
MRE, LS mean % CFB difference from PBO (F1B, week 52): −13.2%
MRE ≥19% increase from BL, no. of patients (F2, responder analysis): 0
MRE ≥19% reduction from BL, % of patients (F2, responder analysis): (35.0) %
MRE ≥19% reduction from BL, no. of patients (F2, responder analysis): 7
VCTE/LSM improving ≥25%, % of patients (F2, responder analysis): (44.0) %
VCTE/LSM improving ≥25%, no. of patients (F2, responder analysis): 37
VCTE/LSM improving ≥30%, % of patients (F2, responder analysis): (33.3) %
VCTE/LSM improving ≥30%, no. of patients (F2, responder analysis): 28
VCTE/LSM worsening ≥25%, % of patients (F2, responder analysis): (11.9) %
VCTE/LSM worsening ≥25%, no. of patients (F2, responder analysis): 10
VCTE/LSM worsening ≥30%, % of patients (F2, responder analysis): (8.3) %
VCTE/LSM worsening ≥30%, no. of patients (F2, responder analysis): 7
FibroScan VCTE/LSM, LS mean CFB (F2, week 52): −2.3 kPa
FibroScan VCTE/LSM, LS mean CFB difference from PBO (F2, week 52): 1.1 kPa
MRE, LS mean % CFB (F2, week 52): −1.9%
MRE, LS mean % CFB difference from PBO (F2, week 52): 4.0%
MRE ≥19% increase from BL, % of patients (F3, responder analysis): (3.6) %
MRE ≥19% increase from BL, no. of patients (F3, responder analysis): 3
MRE ≥19% reduction from BL, % of patients (F3, responder analysis): (26.2) %
MRE ≥19% reduction from BL, no. of patients (F3, responder analysis): 22
VCTE/LSM improving ≥25%, % of patients (F3, responder analysis): (41.1) %
VCTE/LSM improving ≥25%, no. of patients (F3, responder analysis): 67
VCTE/LSM improving ≥30%, % of patients (F3, responder analysis): (34.4) %
VCTE/LSM improving ≥30%, no. of patients (F3, responder analysis): 56
VCTE/LSM worsening ≥25%, % of patients (F3, responder analysis): (14.7) %
VCTE/LSM worsening ≥25%, no. of patients (F3, responder analysis): 24
VCTE/LSM worsening ≥30%, % of patients (F3, responder analysis): (12.9) %
VCTE/LSM worsening ≥30%, no. of patients (F3, responder analysis): 21
FibroScan VCTE/LSM, LS mean CFB (F3, week 52): 2.0 kPa
FibroScan VCTE/LSM, LS mean CFB difference from PBO (F3, week 52): −0.86 kPa
MRE, LS mean % CFB (F3, week 52): −8.9%
MRE, LS mean % CFB difference from PBO (F3, week 52): −8.6%
Liver volume, LS mean % CFB (week 16): −18.8%
Liver volume, LS mean % CFB difference from PBO (week 16): 18.5%
MRI-PDFF % fat fraction, LS mean % CFB (week 16): −37.8%
MRI-PDFF % fat fraction, LS mean % CFB difference from PBO (week 16): −31.4%
Spleen volume, LS mean % CFB (week 16): −2.4%
Spleen volume, LS mean % CFB difference from PBO (week 16): −3.9%
ALT, LS mean % CFB (week 48): −26.6%
ALT, LS mean % CFB difference from PBO (week 48): −19.7%
ALT, LS mean CFB (week 48): −20.4 U/L
AST, LS mean % CFB (week 48): −22.1%
AST, LS mean % CFB difference from PBO (week 48): −19.3%
AST, LS mean CFB (week 48): −13.9 U/L
GGT, LS mean % CFB (week 48): −25.0%
GGT, LS mean % CFB difference from PBO (week 48): −28.3%
GGT, LS mean CFB (week 48): −31.3 U/L
Adiponectin, LS mean CFB (week 52): 0.86 µg/mL
Adiponectin, LS mean CFB difference from PBO (week 52): 0.97 µg/mL
CK-18, LS mean CFB (week 52): −278.2 U/L
CK-18, LS mean CFB difference from PBO (week 52): −134.3 U/L
FibroScan CAP, LS mean CFB (week 52): −39.6 dB/m
FibroScan CAP, LS mean CFB difference from PBO (week 52): −25.2 dB/m
Liver volume, LS mean % CFB (week 52): −21.6%
Liver volume, LS mean % CFB difference from PBO (week 52): −20.5%
MRI-PDFF % fat fraction, LS mean % CFB (week 52): −35.4%
MRI-PDFF % fat fraction, LS mean % CFB difference from PBO (week 52): −26.7%
Spleen volume, LS mean % CFB (week 52): −5.9%
Spleen volume, LS mean % CFB difference from PBO (week 52): −9.0%
Enhanced liver fibrosis score, LS mean CFB [2]: -0.34
Enhanced liver fibrosis score, LS mean CFB difference from PBO [2]: −0.22
PIIINP, LS mean % CFB [3]: −10.7%
PIIINP, LS mean % CFB difference from PBO [3]: −9.7%
PIIINP, LS mean CFB [3]: 2.0 ng/mL
PIIINP, LS mean CFB difference from PBO [3]: -1.4 ng/mL
TIMP-I, LS mean % CFB [4]: −9.3%
TIMP-I, LS mean % CFB difference from PBO [4]: −5.7%
TIMP-I, LS mean CFB [4]: -31.0 ng/mL
TIMP-I, LS mean CFB difference from PBO [4]: -17.7 ng/mL
Hyaluronic acid, LS mean % CFB [5]: 17.2%
Hyaluronic acid, LS mean % CFB difference from PBO [5]: −7.6%
Hyaluronic acid, LS mean CFB [5]: 1.1 µg/L
